#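 Where inhibition never reached the appropriate level, the endpoint shown equals the highest concentration tested. Otherwise, values were interpolated linearly from a five-concentration, 48-hour dose response in 96-well plates. Abbreviation: GI50, concentration required for 50% inhibition of growth. Definition used: TGI = concentration required for complete inhibition of growth.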
# Assays:
# Test in all cases: NCI tumour cell line growth inhibition, 48 h
# [1] = test system: SN12C renal
# [2] = test system: SR leukemia
# [3] = test system: CCRF-CEM leukemia
# [4] = test system: K-562 leukemia
# [5] = test system: MOLT-4 leukemia
# [6] = test system: SF-295 CNS
# [7] = test system: HT29 colon
# [8] = test system: SF-539 CNS
# [9] = test system: MDA-MB-435
# [10] = test system: T-47D breast
# [11] = test system: RPMI-8226 leukemia
# [12] = test system: NCI-H522 lung
# [13] = test system: DU-145 prostate
# [14] = test system: A498 renal
# [15] = test system: A549 NSCLC
# [16] = test system: UACC-62 melanoma
# [17] = test system: NCI-H226 lung
# [18] = test system: OVCAR-8 ovarian
# [19] = test system: M14 melanoma
# [20] = test system: SK-MEL-5 melanoma
# [21] = test system: UACC-257 melanoma
# [22] = test system: SF-268 CNS
# [23] = test system: SK-MEL-2 melanoma
# [24] = test system: NCI-H23 lung
# [25] = test system: OVCAR-4 ovarian
# [26] = test system: 786-0 renal
# [27] = test system: IGROV1 ovarian
# [28] = test system: HL-60(TB) leukemia
# [29] = test system: COLO 205 colon
# [30] = test system: HOP-62 NSCLC
# [31] = test system: HCT-15 colon
# [32] = test system: UO-31 renal
# [33] = test system: SK-MEL-28 melanoma
# [34] = test system: OVCAR-5 ovarian
# [35] = test system: BT-549 breast
# [36] = test system: MCF7 breast
# [37] = test system: TK-10 renal
# [38] = test system: SW-620 colon
# [39] = test system: MDA-MB-231 breast
# [40] = test system: PC-3 prostate
# [41] = test system: KM12 colon
# [42] = test system: HCC-2998 colon
# [43] = test system: NCI/ADR-RES ovarian
# [44] = test system: NCI-H460 lung
# [45] = test system: ACHN renal
# [46] = test system: HCT-116 colon
# [47] = test system: SNB-75 CNS
# [48] = test system: HS 578T breast
# [49] = test system: SNB-19 CNS
# [50] = test system: LOX IMVI melanoma
# [51] = test system: U251 CNS
# [52] = test system: RXF 393 renal
# [53] = test system: MALME-3M melanoma
# [54] = test system: SK-OV-3 ovarian
# [55] = test system: HOP-92 NSCLC
# [56] = test system: OVCAR-3 ovarian
compound,measurement,setting,value
Cc1nc(Nc2nc3ccccc3o2)nc(-c2cccc([N+](=O)[O-])c2)c1C(=O)Nc1ccc(F)c(Cl)c1,GI50,[1],2640 nM
same,TGI,[1],20.1 µM
same,GI50,[2],2600 nM
same,TGI,[2],15.1 µM
same,GI50,[3],2340 nM
same,TGI,[3],24.2 µM
same,GI50,[4],1840 nM
same,TGI,[4],> 100 µM
same,GI50,[5],3.24 µM
same,TGI,[5],16.9 µM
same,GI50,[6],1650 nM
same,TGI,[6],7.09 µM
same,GI50,[7],2210 nM
same,TGI,[7],19.5 µM
same,GI50,[8],3.52 µM
same,TGI,[8],> 100 µM
same,GI50,[9],2160 nM
same,TGI,[9],8.01 µM
same,GI50,[10],1410 nM
same,TGI,[10],9.18 µM
same,GI50,[11],724 nM
same,TGI,[11],4.26 µM
same,GI50,[12],1390 nM
same,TGI,[12],5.71 µM
same,GI50,[13],2950 nM
same,TGI,[13],> 100 µM
same,GI50,[14],853 nM
same,TGI,[14],3.5 µM
same,GI50,[15],1920 nM
same,TGI,[15],> 100 µM
same,GI50,[16],2290 nM
same,TGI,[16],> 100 µM
same,GI50,[17],3.05 µM
same,TGI,[17],> 100 µM
same,GI50,[18],2440 nM
same,TGI,[18],> 100 µM
same,GI50,[19],3.26 µM
same,TGI,[19],> 100 µM
same,GI50,[20],1710 nM
same,TGI,[20],3.45 µM
same,GI50,[21],2310 nM
same,TGI,[21],8.23 µM
same,GI50,[22],3.3 µM
same,TGI,[22],> 100 µM
same,GI50,[23],2030 nM
same,TGI,[23],4.73 µM
same,GI50,[24],2190 nM
same,TGI,[24],18.8 µM
same,GI50,[25],1620 nM
same,TGI,[25],35 µM
same,GI50,[26],3.18 µM
same,TGI,[26],> 100 µM
same,GI50,[27],2940 nM
same,TGI,[27],> 100 µM
same,GI50,[28],2150 nM
same,TGI,[28],5.29 µM
same,GI50,[29],1780 nM
same,TGI,[29],3.4 µM
same,GI50,[30],2580 nM
same,TGI,[30],50.4 µM
same,GI50,[31],2290 nM
same,TGI,[31],> 100 µM
same,GI50,[32],1870 nM
same,TGI,[32],7.09 µM
same,GI50,[33],3.83 µM
same,TGI,[33],> 100 µM
same,GI50,[34],3.8 µM
same,TGI,[34],> 100 µM
same,GI50,[35],3.08 µM
same,TGI,[35],68.4 µM
same,GI50,[36],2040 nM
same,TGI,[36],9.73 µM
same,GI50,[37],2070 nM
same,TGI,[37],12.2 µM
same,GI50,[38],3.09 µM
same,TGI,[38],> 100 µM
same,GI50,[39],1880 nM
same,TGI,[39],4.82 µM
same,GI50,[40],797 nM
same,TGI,[40],11.5 µM
same,GI50,[41],1960 nM
same,TGI,[41],12.4 µM
same,GI50,[42],3.26 µM
same,TGI,[42],> 100 µM
same,GI50,[43],2330 nM
same,TGI,[43],10.5 µM
same,GI50,[44],1430 nM
same,TGI,[44],17.7 µM
same,GI50,[45],2420 nM
same,TGI,[45],81.7 µM
same,GI50,[46],1980 nM
same,TGI,[46],> 100 µM
same,GI50,[47],2270 nM
same,TGI,[47],9.62 µM
same,GI50,[48],2870 nM
same,TGI,[48],38.8 µM
same,GI50,[49],2320 nM
same,TGI,[49],> 100 µM
same,GI50,[50],2780 nM
same,TGI,[50],> 100 µM
same,GI50,[51],2060 nM
same,TGI,[51],8.27 µM
same,GI50,[52],2830 nM
same,TGI,[52],> 100 µM
same,GI50,[53],1920 nM
same,TGI,[53],5.79 µM
same,GI50,[54],2800 nM
same,TGI,[54],> 100 µM
same,GI50,[55],1390 nM
same,TGI,[55],4.66 µM
same,GI50,[56],1020 nM
same,TGI,[56],13.8 µM

# Reference: PubChem BioAssay (NCI)
